“And” between values parts separate entries of the source, which are not always exact repeats. Identical values can stand only once.
What was measured:
[1] = tested on: men with erectile dysfunction; experiment: Clinical study of arginine aspartate (Sargenor) alone and with Pycnogenol in 40 men with erectile dysfunction; assay type: in vivo, human
Description: A clinical study was conducted on forty participants who had erectile dysfunction. The study involved the effect of taking arginine asparatate, which is a salt of arginine with aspartic acid. One gram of arginine asparatate contains 566.85 mg of arginine.
The participants were grouped according to their variant of disturbed erection. The variants are in five categories: weakened, delayed, hesitating, losing and normal. The “weakened” variant signifies that the penis increases in size and becomes hard to a certain extent, but it is not enough to enter the vagina. The “delayed” variant signifies that if it is possible for the penis to become hard enough to enter the vagina, but such may require additional time. The “hesitating” variant signifies that before or after sexual contact, the erection is unstable and thus makes the sexual intercourse more difficult. The “losing” variant signifies that during the love game there is good erection, but such is lost when trying to make contact or during intercourse. The “normal” variant signifies that no appreciable disturbed erection was present.
The clinical study was over three months. During the first month, only 3 doses of 1000 milligrams (mg) of arginine asparatate (Sargenor) were administered daily to each participant. By the end of the first month, there was improvement in erectile dysfunction in about 10% of the participants. During the second month, 2 doses of 40 mg of Pycnogenol® food supplement were administered daily to each participant, together with the 3 doses of 1000 mg of arginine asparatate. By the end of the second month, there was a statistically significant improvement of erectile dysfunction in 80% of the participants. During the third month, 3 doses of 40 mg of Pycnogenol® food supplement were administered daily to each participant, together with the 3 doses of 1000 mg of arginine asparatate. By the end of the third month, there was further improvement of the erectile dysfunction condition even for some of the participants who had not shown improvement during the second month. Overall, there was a statistically significant improvement of erectile dysfunction in 92% of the treated participants.
The following statistical analysis of the results from the clinical study calculate the probability of whether the observed differences between two treatments are statistically significant at a certain level.
Dr. Romil Stanislavov and V. Nikolova of The Seminological Laboratory SBALAG in Maichin Dom, Sofia, Bulgaria investigated the possibility to overcome erectile dysfunction by increasing the amounts of endogenous NO. For this purpose, Pycnogenol® pine bark extract as it is known to stimulate nitric oxide synthase was orally administered together with L-arginine as substrate for this enzyme.
The study included 40 men aged 25 to 45 years (mean age 36.6.+−.5.3 years) with confirmed functional erectile dysfunction of at least 3 months duration, who were unable to achieve adequate erection and rigidity sufficient for vaginal penetration and completion of successful intercourse after spontaneous sexual stimulation. All patients were required to be involved in a stable, monogamous relationship with a female partner for more than 6 months.
Exclusion criteria were severe cardiovascular diseases, hypertension, renal failure, hepatic insufficiency, endocrine abnormalities, and psychiatric disorders. Patients were also excluded if they were currently or recently treated for erectile dysfunction by vasoactive medications, surgery, or any mechanical device. Concomitant use of other therapies for erectile dysfunction were not allowed. The study was approved by the Ethics Committee of Medical Research Board of the University Clinic of Sofia, Bulgaria and written consent was obtained from each participant. […]

[2] = tested on: men with testosterone levels below normal; experiment: Example 2: 12-month treatment of 50 men with testosterone levels below normal and secondary infertility; Global efficacy questionnaire on erection; assay type: in vivo, human; settings: after 1 month treatment with L-arginine (only)
Description: In the department of Dr. Stanislavov and Dr. Nikolova 50 men aged between 45-60 with testosterone levels below normal were treated daily with • Pycnogenol® 120 mg • L-arginine (Sargenor) 1.71 g • Testosterone undecanoate 120 mg • over a period of 12 months because of secondary infertility.

postmenopausal women = settings: taken together with supplemental hormones; 202 postmenopausal women; cited from earlier work
[3] = after 1 month, arginine aspartate (Sargenor) 3 x 1000 mg daily only, 40 patients

| Compound | Responders (restored erectile function), number of patients ([1]; Sargenor only, 1. month) | Responders (restored erectile function), percent of patients ([1]; Sargenor only, 1. month) [%] | Normal erection, D (percent distribution) [1, 3] [%] | Normal erection, n (number of patients) [1, 3] | Variant of disturbed erection: Delayed, D (percent distribution) [1, 3] [%] | Variant of disturbed erection: Delayed, n (number of patients) [1, 3] | Variant of disturbed erection: Hesitating, D (percent distribution) [1, 3] [%] | Variant of disturbed erection: Hesitating, n (number of patients) [1, 3] | Variant of disturbed erection: Losing, D (percent distribution) [1, 3] [%] | Variant of disturbed erection: Losing, n (number of patients) [1, 3] | Variant of disturbed erection: Weakened, D (percent distribution) [1, 3] [%] | Variant of disturbed erection: Weakened, n (number of patients) [1, 3] | Participants with improvement in erectile dysfunction ([1]; end of first month, 3 doses of 1000 mg arginine asparatate daily only) | Mean time of duration (of the erection) ([1]; mean (SEM), responders, Sargenor only, 1. month) [min] | Mean time until response emerges ([1]; mean (SEM), responders, spontaneous sexual stimulation, Sargenor only, 1. month) | Assessment of erection: Disturbed (weakened, delayed, hesitating, loosing), number of patients [2] | Assessment of erection: Disturbed (weakened, delayed, hesitating, loosing), percent of patients [2] [%] | Assessment of erection: Normal, number of patients [2] | Assessment of erection: Normal, percent of patients [2] [%] | Women reporting improved genital sensations (postmenopausal women) [%] |
| --- | --- | --- | --- | --- | --- | --- | --- | --- | --- | --- | --- | --- | --- | --- | --- | --- | --- | --- | --- | --- |
| L-arginine aspartate [Sargenor] | 2 | 5 | 5 | 2 | 25 | 10 | 10 | 4 | 10 | 4 | 50 | 20 | about 10% | 2 ± 1 | 10 min and 10 ± 2 min | 42 | 84 | 8 | 16 | – |
| CCCc1nn(C)c2c(=O)[nH]c(-c3cc(S(=O)(=O)N4CCN(C)CC4)ccc3OCC)nc12 [sildenafil] | – | – | – | – | – | – | – | – | – | – | – | – | – | – | – | – | – | – | – | 57 |
